This test concerns the target bovine cardiac myofibrils (full-length cardiac myosin ATPase in the native sarcomere) (Bos taurus (Bovine), UniProt Q9BE39). Nature of the test: Skinned bovine cardiac myofibril ATPase assay (PK/LDH-coupled). Conditions: Ca2+ activating to 75% of maximal rate; for CDMF75 IC15: concentration giving 15% inhibition; for IC50: read-out: CDMF75 IC50. Type of test: biochemical. The method, then: To evaluate the effect of compounds on the ATPase activity of full-length cardiac myosin in the context of the native sarcomere, skinned myofibril assays were performed. Bovine cardiac myofibrils were obtained by homogenizing bovine cardiac left ventricular tissue in the presence of a detergent such as triton X-100. Such treatment removes membranes and a majority of the soluble cytoplasmic proteins but leaves intact the cardiac sarcomeric acto-myosin apparatus. Myofibril preparations retain the ability to hydrolyze ATP in an Ca^2+ regulated manner. ATPase activities of such myofibril preparations in the presence and absence of compounds were assayed at Ca^2+ concentrations activating to a defined fraction of the maximal rate (i.e., 25%, 75%). Small molecule agents were assessed for their ability to inhibit the steady-state ATPase activity of bovine cardiac myofibrils using pyruvate kinase and lactate dehydrogenase (PK/LDH)-coupled enzyme system. This assay regenerates myosin-produced ADP into ATP by oxidizing NADH, producing an absorbance change at 340 nm. Prior to testing small molecule agents, the bovine cardiac myofibrils were assessed for their calcium responsiveness and the calcium concentration that achieves either a 50% (pCa50) or 75% (pCa75) activation of the myofibril system was chosen as the final condition for assessing the inhibitory activity of the small molecule agents. All enzymatic activity was measured in a buffered solution containing 12 mM PIPES (piperazine-N,N′-bis(2-ethanesulfonic acid), 2 mM magnesium chloride at pH 6.8 (PM 12 buffer). Final assay conditions were 1 mg/mL of bovine cardiac myofibrils, 4 U/mL pyruvate kinase, 6 U/mL lactate dehydrogenase, 50 μM ATP, 0.1 mg/mL BSA (bovine serum albumin), 10 ppm antifoam, 1 mM DTT, 0.5 mM NADH, 1.5 mM PEP, 0.6 mM EGTA, and an amount of CaCl2) sufficient to achieve either 50% or 75% activation of the myofibril ATPase activity.

Some results are limits rather than exact numbers.

We go through 27 compounds from patent publication US12065436B2, “Cardiac sarcomere inhibitors” (Cytokinetics, Inc., priority 2018, dated 2024).

Sequence of bovine cardiac myofibrils (full-length cardiac myosin ATPase in the native sarcomere) (Q9BE39 whole entry): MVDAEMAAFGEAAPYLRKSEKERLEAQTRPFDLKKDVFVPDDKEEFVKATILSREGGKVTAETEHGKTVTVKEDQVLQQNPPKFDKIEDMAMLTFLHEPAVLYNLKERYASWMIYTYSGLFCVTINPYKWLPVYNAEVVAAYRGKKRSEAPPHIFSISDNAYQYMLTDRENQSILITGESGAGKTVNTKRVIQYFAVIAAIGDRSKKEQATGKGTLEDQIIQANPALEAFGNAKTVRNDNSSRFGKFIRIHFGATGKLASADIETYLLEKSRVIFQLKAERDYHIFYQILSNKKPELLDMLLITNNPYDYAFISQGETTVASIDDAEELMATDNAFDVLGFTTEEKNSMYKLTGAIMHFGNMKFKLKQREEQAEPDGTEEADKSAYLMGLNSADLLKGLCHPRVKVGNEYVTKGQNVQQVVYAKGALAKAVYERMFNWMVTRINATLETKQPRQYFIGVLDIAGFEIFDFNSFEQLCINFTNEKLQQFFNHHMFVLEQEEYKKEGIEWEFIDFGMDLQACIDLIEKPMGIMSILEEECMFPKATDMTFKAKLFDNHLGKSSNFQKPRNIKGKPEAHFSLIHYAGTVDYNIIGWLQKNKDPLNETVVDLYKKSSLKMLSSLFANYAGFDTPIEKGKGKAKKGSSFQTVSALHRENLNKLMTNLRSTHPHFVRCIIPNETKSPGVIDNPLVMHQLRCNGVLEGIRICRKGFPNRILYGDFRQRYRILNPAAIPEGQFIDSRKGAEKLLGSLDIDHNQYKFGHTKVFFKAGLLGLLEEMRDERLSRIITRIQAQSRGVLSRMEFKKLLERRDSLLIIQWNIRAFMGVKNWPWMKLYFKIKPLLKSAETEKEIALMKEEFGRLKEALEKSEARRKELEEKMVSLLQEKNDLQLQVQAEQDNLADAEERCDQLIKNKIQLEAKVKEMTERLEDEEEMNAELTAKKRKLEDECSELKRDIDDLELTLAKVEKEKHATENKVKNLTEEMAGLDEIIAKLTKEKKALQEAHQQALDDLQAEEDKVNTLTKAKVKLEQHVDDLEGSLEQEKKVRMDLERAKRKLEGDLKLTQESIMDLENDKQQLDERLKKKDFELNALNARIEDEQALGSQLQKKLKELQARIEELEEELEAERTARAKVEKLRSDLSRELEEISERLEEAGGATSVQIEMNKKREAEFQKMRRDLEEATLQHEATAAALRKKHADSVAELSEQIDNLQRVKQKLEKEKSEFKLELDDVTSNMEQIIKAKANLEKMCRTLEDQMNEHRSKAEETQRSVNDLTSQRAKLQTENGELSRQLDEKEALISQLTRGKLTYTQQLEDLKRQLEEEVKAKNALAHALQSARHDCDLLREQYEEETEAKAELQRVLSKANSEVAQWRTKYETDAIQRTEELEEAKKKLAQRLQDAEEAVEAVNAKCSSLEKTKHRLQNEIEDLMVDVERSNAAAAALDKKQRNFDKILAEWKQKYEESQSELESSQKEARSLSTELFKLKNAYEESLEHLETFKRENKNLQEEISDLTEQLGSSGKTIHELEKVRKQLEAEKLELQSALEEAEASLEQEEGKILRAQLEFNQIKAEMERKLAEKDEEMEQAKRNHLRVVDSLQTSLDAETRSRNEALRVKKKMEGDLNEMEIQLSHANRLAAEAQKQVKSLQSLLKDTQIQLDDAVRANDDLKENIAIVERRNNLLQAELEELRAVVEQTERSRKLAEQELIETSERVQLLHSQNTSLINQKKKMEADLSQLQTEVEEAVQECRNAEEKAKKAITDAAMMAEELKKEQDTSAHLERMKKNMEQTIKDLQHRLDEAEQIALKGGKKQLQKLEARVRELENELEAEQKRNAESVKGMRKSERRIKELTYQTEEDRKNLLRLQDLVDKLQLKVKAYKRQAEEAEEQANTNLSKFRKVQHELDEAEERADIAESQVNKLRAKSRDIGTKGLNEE
Sequence of bovine cardiac myofibrils (full-length cardiac myosin ATPase in the native sarcomere) (P85100 whole entry partner): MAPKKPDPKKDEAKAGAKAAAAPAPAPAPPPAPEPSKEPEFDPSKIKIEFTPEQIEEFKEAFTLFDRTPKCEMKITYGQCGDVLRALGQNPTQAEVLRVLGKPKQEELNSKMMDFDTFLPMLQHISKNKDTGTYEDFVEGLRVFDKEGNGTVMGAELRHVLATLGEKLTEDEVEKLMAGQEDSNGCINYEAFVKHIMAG
Sequence of bovine cardiac myofibrils (full-length cardiac myosin ATPase in the native sarcomere) (Q3SZE5 whole entry partner): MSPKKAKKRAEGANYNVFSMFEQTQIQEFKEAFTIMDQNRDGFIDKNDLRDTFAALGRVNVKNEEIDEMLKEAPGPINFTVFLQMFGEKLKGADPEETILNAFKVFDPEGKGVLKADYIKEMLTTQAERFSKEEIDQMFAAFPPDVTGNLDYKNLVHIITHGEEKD

The IC50 is the point on the concentration scale where inhibition reaches its midpoint. `O=C(NC1CCc2cc(-c3noc(C(F)F)n3)cnc21)c1ccccc1` (stereo not drawn) [Compound 94, N-(3-(5-(difluoromethyl)-1,2,4-oxadiazol-3-yl)-6,7-dihydro-5H-cyclopenta[b]pyridin-7-yl)benzamide]: the “CDMF75 IC15” value stood at 5.2 µM and the IC50 stood at 26.6 µM.

`Cc1nc(-c2ccc3c(c2)CC[C@H]3NC(=O)c2nnn(C)n2)no1` [Compound 136, (R)-2-methyl-N-(5-(5-methyl-1,2,4-oxadiazol-3-yl)-2,3-dihydro-1H-inden-1-yl)-2H-tetrazole-5-carboxamide]: the “CDMF75 IC15” value amounted to 0.8 µM and the IC50 was determined as 2.8 µM.

On to `Cc1nc(-c2ccc3c(c2)OC[C@H]3NC(=O)c2ocnc2C)no1` [Compound 454, (S)-4-methyl-N-(6-(5-methyl-1,2,4-oxadiazol-3-yl)-2,3-dihydrobenzofuran-3-yl)oxazole-5-carboxamide], for which the “CDMF75 IC15” value came out at 0.5 µM and the 50% inhibitory concentration (IC50) stood at 1.8 µM.

With `Cc1nc(-c2ccc3c(c2)CCC3NC(=O)c2oc(C)nc2C)no1` (stereo not drawn) [Compound 53, 2,4-dimethyl-N-(5-(5-methyl-1,2,4-oxadiazol-3-yl)-2,3-dihydro-1H-inden-1-yl)oxazole-5-carboxamide], the “CDMF75 IC15” value turned out to be 2.5 µM and the concentration for half-maximal inhibition (IC50) was found to be 8.8 µM.

Consider `O=C(N[C@@H]1CCc2cc(-c3noc(C(F)F)n3)ccc21)c1cc(CO)ccn1` [Compound 666, (R)-N-(5-(5-(difluoromethyl)-1,2,4-oxadiazol-3-yl)-2,3-dihydro-1H-inden-1-yl)-4-(hydroxymethyl)picolinamide], for which the “CDMF75 IC15” value was determined as 0.8 µM and the IC50 was 3.4 µM.

Take `[2H]C([2H])([2H])C(=O)N[C@@H]1CCc2cc(-c3noc(CC)n3)ccc21` [Compound 446, (R)-N-(5-(5-ethyl-1,2,4-oxadiazol-3-yl)-2,3-dihydro-1H-inden-1-yl)acetamide-2,2,2-d3]: the “CDMF75 IC15” value stood at 0.7 µM and the half-maximal inhibitory concentration (IC50) was determined as 2.6 µM.

Consider `COCc1nc(-c2ccc3c(c2)CC[C@H]3NC(=O)c2cc(CO)ccn2)no1` [Compound 672, (R)-4-(hydroxymethyl)-N-(5-(5-(methoxymethyl)-1,2,4-oxadiazol-3-yl)-2,3-dihydro-1H-inden-1-yl)picolinamide], for which the “CDMF75 IC15” value came out at 3.2 µM and the IC50 is 13.7 µM.

Consider `[2H]C([2H])([2H])c1noc(-c2ccc3c(c2)OC[C@H]3NC(=O)c2ccnn2C)n1` [Compound 312, (S)-1-methyl-N-(6-(3-(methyl-d3)-1,2,4-oxadiazol-5-yl)-2,3-dihydrobenzofuran-3-yl)-1H-pyrazole-5-carboxamide], for which the “CDMF75 IC15” value came to 0.7 µM and the IC50 came out at 2.4 µM.

Take `CCC(=O)N[C@@H]1CCc2cc(-c3noc(CC)n3)ccc21` [Compound 317, (R)-N-(5-(5-ethyl-1,2,4-oxadiazol-3-yl)-2,3-dihydro-1H-inden-1-yl)propionamide]: the “CDMF75 IC15” value came to 2.7 µM and the IC50 is 12.1 µM.

As for `Cc1cc(-c2ccc3c(c2)CC[C@H]3NC(=O)c2ccnn2C)ncn1` [Compound 381, (R)-1-methyl-N-(5-(6-methylpyrimidin-4-yl)-2,3-dihydro-1H-inden-1-yl)-1H-pyrazole-5-carboxamide], the “CDMF75 IC15” value worked out at 39.2 µM and the half-inhibitory concentration (IC50) was over 39.2 µM.

As to `CC(C)c1nc(-c2ccc3c(c2)CC[C@H]3NC(=O)c2cnn(CCO)c2)no1` [Compound 522, (R)-1-(2-hydroxyethyl)-N-(5-(5-isopropyl-1,2,4-oxadiazol-3-yl)-2,3-dihydro-1H-inden-1-yl)-1H-pyrazole-4-carboxamide], the “CDMF75 IC15” value is 2.0 µM and the concentration for half-maximal inhibition (IC50) turned out to be 9.1 µM.

With `[2H]C([2H])([2H])c1noc(-c2ccc3c(c2)CC[C@H]3NC(=O)c2cnn(C)c2)n1` [Compound 274, (R)-1-methyl-N-(5-(3-(methyl-d3)-1,2,4-oxadiazol-5-yl)-2,3-dihydro-1H-inden-1-yl)-1H-pyrazole-4-carboxamide], the “CDMF75 IC15” value stood at 4.0 µM and the 50% inhibitory concentration (IC50) was found to be 15 µM.

`O=C(N[C@@H]1CCc2cc(-c3noc(C4CCC4)n3)ccc21)C(F)F` [Compound 440, (R)-N-(5-(5-cyclobutyl-1,2,4-oxadiazol-3-yl)-2,3-dihydro-1H-inden-1-yl)-2,2-difluoroacetamide]: the “CDMF75 IC15” value turned out to be 2.7 µM and the concentration for half-maximal inhibition (IC50) worked out at 10.7 µM.

In the case of `CC(=O)N[C@@H]1CCc2cc(-c3noc(C(F)F)n3)ccc21` [Compound 286, (R)-N-(5-(5-(difluoromethyl)-1,2,4-oxadiazol-3-yl)-2,3-dihydro-1H-inden-1-yl)acetamide], the “CDMF75 IC15” value was 2.1 µM and the concentration for half-maximal inhibition (IC50) worked out at 10.2 µM.

On to `CCc1nc(-c2ccc3c(c2)CC[C@H]3NC(=O)c2cc(C)n(C)n2)no1` [Compound 580, (R)-N-(5-(5-ethyl-1,2,4-oxadiazol-3-yl)-2,3-dihydro-1H-inden-1-yl)-1,5-dimethyl-1H-pyrazole-3-carboxamide], for which the “CDMF75 IC15” value turned out to be 3.1 µM and the concentration for half-maximal inhibition (IC50) is 17.6 µM.

Consider `CCc1nc(-c2ccc3c(c2)CC[C@H]3NC(=O)c2nonc2C)no1` [Compound 633, (R)-N-(5-(5-ethyl-1,2,4-oxadiazol-3-yl)-2,3-dihydro-1H-inden-1-yl)-4-methyl-1,2,5-oxadiazole-3-carboxamide], for which the “CDMF75 IC15” value came to 0.2 µM and the IC50 amounted to 0.8 µM.

With `Cc1cc(C(=O)N[C@@H]2COc3cc(-c4noc(C5CC5)n4)ccc32)n(C)n1` [Compound 233, (S)-N-(6-(5-cyclopropyl-1,2,4-oxadiazol-3-yl)-2,3-dihydrobenzofuran-3-yl)-1,3-dimethyl-1H-pyrazole-5-carboxamide], the “CDMF75 IC15” value was 0.3 µM and the IC50 amounted to 1.1 µM.

For `CC(=O)N[C@@H]1CCc2cc(-c3noc(C4CC4)n3)ccc21` [Compound 419, (R)-N-(5-(5-cyclopropyl-1,2,4-oxadiazol-3-yl)-2,3-dihydro-1H-inden-1-yl)acetamide], the “CDMF75 IC15” value was found to be 1.2 µM and the 50% inhibitory concentration (IC50) was 4.7 µM.

On to `[2H]C([2H])([2H])c1nc(-c2ccc3c(c2)OC[C@H]3NC(=O)c2nnn(C)n2)no1` [Compound 271, (S)-2-methyl-N-(6-(5-(methyl-d3)-1,2,4-oxadiazol-3-yl)-2,3-dihydrobenzofuran-3-yl)-2H-tetrazole-5-carboxamide], for which the “CDMF75 IC15” value is 4.3 µM and the IC50 is 17.1 µM.

Consider `O=C(N[C@@H]1COc2cc(-c3noc(C(F)F)n3)ccc21)c1cc(CO)ccn1` [Compound 707, (S)-N-(6-(5-(difluoromethyl)-1,2,4-oxadiazol-3-yl)-2,3-dihydrobenzofuran-3-yl)-4-(hydroxymethyl)picolinamide], for which the “CDMF75 IC15” value was found to be 0.9 µM and the IC50 amounted to 3.6 µM.

Turning to `CCc1nc(-c2ccc3c(c2)OCC3NC(=O)c2cc(C)nn2C)no1` (stereo not drawn) [Compound 230, N-(6-(5-ethyl-1,2,4-oxadiazol-3-yl)-2,3-dihydrobenzofuran-3-yl)-1,3-dimethyl-1H-pyrazole-5-carboxamide], the “CDMF75 IC15” value is 0.6 µM and the IC50 amounted to 1.8 µM.

As for `COCc1nc(-c2ccc3c(c2)OC[C@H]3NC(=O)c2cc(CO)ccn2)no1` [Compound 713, (S)-4-(hydroxymethyl)-N-(6-(5-(methoxymethyl)-1,2,4-oxadiazol-3-yl)-2,3-dihydrobenzofuran-3-yl)picolinamide], the “CDMF75 IC15” value was determined as 2.7 µM and the half-maximal inhibitory concentration (IC50) was 11 µM.

As to `Cc1nc(-c2ccc3c(c2)OC[C@@H]3NC(=O)c2oc(C)nc2C)no1` [Compound 160, (R)-2,4-dimethyl-N-(6-(5-methyl-1,2,4-oxadiazol-3-yl)-2,3-dihydrobenzofuran-3-yl)oxazole-5-carboxamide], the “CDMF75 IC15” value came to 6.5 µM and the half-inhibitory concentration (IC50) was 31.3 µM.

As for `Cc1ccnc(-c2ccc3c(c2)CC[C@H]3NC(=O)c2ccnn2C)c1` [Compound 380, (R)-1-methyl-N-(5-(4-methylpyridin-2-yl)-2,3-dihydro-1H-inden-1-yl)-1H-pyrazole-5-carboxamide], the “CDMF75 IC15” value stood at 2.2 µM and the IC50 is 10.3 µM.

With `Cc1cc(C(=O)NC2CCc3cc(-c4cnc(C)o4)ccc32)ccn1` (stereo not drawn) [Compound 134, 2-methyl-N-(5-(2-methyloxazol-5-yl)-2,3-dihydro-1H-inden-1-yl)isonicotinamide], the “CDMF75 IC15” value came out at 39.2 µM and the IC50 is over 39.2 µM.

In the case of `COCc1nc(-c2ccc3c(c2)CC[C@H]3NC(=O)c2cnn(C)c2)no1` [Compound 178, (R)-N-(5-(5-(methoxymethyl)-1,2,4-oxadiazol-3-yl)-2,3-dihydro-1H-inden-1-yl)-1-methyl-1H-pyrazole-4-carboxamide], the “CDMF75 IC15” value stood at 1.9 µM and the half-inhibitory concentration (IC50) was 6.8 µM.

Take `CC(=O)N[C@@H]1COc2cc(-c3noc(C4CCC4)n3)ccc21` [Compound 458, (S)-N-(6-(5-cyclobutyl-1,2,4-oxadiazol-3-yl)-2,3-dihydrobenzofuran-3-yl)acetamide]: the “CDMF75 IC15” value was found to be 2.0 µM and the IC50 was determined as 9.2 µM.
